Test results published in ChEMBL document CHEMBL5385861, “Development of novel hydrazidoarylaminopyrimidine-based BTK/FLT3 dual inhibitors with potent in vivo anti-hematological malignancies effects” (Eur J Med Chem, 2023).

Legend:
MV4-11 [1] = test: Antitumor activity against human MV4-11 cells xenografted in NOD/SCID mouse assessed as tumor growth inhibition at 10 mg/kg ip administered once daily for 21 days; assay type: functional; details: MV4-11, 504 h, time 21 day, read-out: TGI
[2] = molecular target: T1, Tyrosine-protein kinase BTK (Homo sapiens, UniProt Q06187); test: Inhibition of BTK (unknown origin) incubated for 40 mins by radiometric kinase assay
JeKo-1 [3] = test: Induction of apoptosis in human JeKo-1 cells assessed as early apoptotic cells at 30 nM incubated for 72 hrs by Annexin VFITC/PI staining based flow cytometry analysis (reference value: 3.10%); assay type: functional
MOLT-4 [4] = test: cells; details: Homo sapiens, MOLT-4, 72 h
Description: Antiproliferative activity against human MOLT-4 cells assessed as inhibition of cell growth incubated for 72 hrs by CCK8 assay

[5] = molecular target: Vascular endothelial growth factor receptor 1 (Homo sapiens) (UniProt P17948); test: Inhibition of FLT1 (unknown origin) at 0.2 uM incubated for 40 mins by radiometric kinase assay relative to control
JeKo-1 [6] = test: Antitumor activity against human JeKo-1 cells xenografted NOD/SCID mouse assessed as reduction in tumor weight at 50 mg/kg, ip measured for 16 days; assay type: functional; details: time 16 day
[7] = molecular target: T1, Tyrosine-protein kinase BTK; test: Inhibition of BTK phosphorylation in human JeKo-1 cells incubated for 72 hrs by Western blot analysis; assay type: cell-based; details: dose 30-750 nM
JeKo-1 [8] = test: Induction of apoptosis in human JeKo-1 cells assessed as viable cells at 150 nM incubated for 72 hrs by Annexin VFITC/PI staining based flow cytometry analysis (reference value: 94.81%); assay type: functional; details: read-out: Activity
JeKo-1 [9] = test: Potency index, ratio of ibrutinib IC50 to test compound IC50 for antiproliferative activity against human JeKo-1 cells; assay type: functional
MV4-11 [10] = test: Potency index, ratio of ibrutinib IC50 to test compound IC50 for antiproliferative activity against human MV4-11 cells; assay type: functional
[11] = molecular target: Receptor-type tyrosine-protein kinase FLT3 (Homo sapiens, UniProt P36888); test: Inhibition of FLT3 (unknown origin) incubated for 40 mins by radiometric kinase assay
JeKo-1 [12] = test: Induction of apoptosis in human JeKo-1 cells assessed as upregulation of p53 protein expression incubated for 72 hrs by Western blot analysis; assay type: functional, cell-based; details: dose 30-750 nM
[13] = Toxicity in NOD/SCID mouse xenografted with human JeKo-1 cells assessed as abnormal activity at 25 to 50 mg/kg, ip measured for 16 days; assay type: organism-based; details: in vivo, 384 h, dose 25-50 mg/kg, time 16 day
[14] = molecular target: Cytoplasmic tyrosine-protein kinase BMX (Homo sapiens) (UniProt P51813); test: Inhibition of BMX (unknown origin) at 0.2 uM incubated for 40 mins by radiometric kinase assay relative to control
JeKo-1 [15] = test: Antitumor activity against human JeKo-1 cells xenografted in ip dosed NOD/SCID mouse assessed as suppression of tumor growth measured for 16 days; assay type: functional, organism-based; details: dose 25-50 mg/kg, time 16.0 day
MOLT-4 [16] = test: Potency index, ratio of sorafenib IC50 to test compound IC50 for antiproliferative activity against human MOLT-4 cells; assay type: functional
JeKo-1 [17] = test: Induction of apoptosis in human JeKo-1 cells assessed as viable cells at 750 nM incubated for 72 hrs by Annexin VFITC/PI staining based flow cytometry analysis (reference value: 94.81%); assay type: functional; details: Homo sapiens, JeKo-1, read-out: Activity
JeKo-1 [18] = test: Induction of apoptosis in human JeKo-1 cells assessed as late apoptotic cells at 750 nM incubated for 72 hrs by Annexin VFITC/PI staining based flow cytometry analysis (reference value: 1.42%); assay type: functional
[19] = Acute toxicity in ICR mouse assessed as animal survival at 375 mg/kg, ip measured for 2 weeks; assay type: organism-based; details: in vivo
[20] = Acute toxicity in ICR mouse assessed as animal survival at 300 mg/kg, ip measured for 2 weeks; assay type: organism-based; details: in vivo
[21] = molecular target: Serine/threonine-protein kinase mTOR (Homo sapiens) (UniProt P42345); test: Inhibition of mTOR (unknown origin) at 0.2 uM incubated for 40 mins by radiometric kinase assay relative to control
JeKo-1 [22] = test: Induction of apoptosis in human JeKo-1 cells assessed as upregulation of cleaved caspase-3 protein expression incubated for 72 hrs by Western blot analysis; assay type: functional, cell-based; details: dose 30-750 nM
JeKo-1 [23] = test: Induction of apoptosis in human JeKo-1 cells assessed as necrotic cells at 30 nM incubated for 72 hrs by Annexin VFITC/PI staining based flow cytometry analysis (reference value: 0.67%); assay type: functional
JeKo-1 [24] = test: Induction of apoptosis in human JeKo-1 cells assessed as viable cells at 30 nM incubated for 72 hrs by Annexin VFITC/PI staining based flow cytometry analysis (reference value: 94.81%); assay type: functional; details: read-out: Activity
[25] = molecular target: Mitogen-activated protein kinase kinase kinase 7 (Homo sapiens) (UniProt O43318); test: Inhibition of TAK1 (unknown origin) at 0.2 uM incubated for 40 mins by radiometric kinase assay relative to control
MV4-11 [26] = test: Antitumor activity against human MV4-11 cells xenografted in ip dosed NOD/SCID mouse assessed as suppression of tumor growth administered once daily for 21 days; assay type: functional, organism-based; details: dose 10-20 mg/kg, time 21.0 day
MOLT-4 [27] = test: Potency index, ratio of spebrutinib IC50 to test compound IC50 for antiproliferative activity against human MOLT-4 cells; assay type: functional
[28] = molecular target: Histone deacetylase (Homo sapiens) (UniProt Q13547+O15379+Q9UBN7+Q92769+Q9UQL6+Q8WUI4+Q9BY41+Q96DB2+P56524+Q9UKV0+Q969S8); test: Inhibition of HDAC (unknown origin) at 0.2 uM incubated for 40 mins by radiometric kinase assay relative to control; assay type: protein assay
MV4-11 [29] = test: Antitumor activity against human MV4-11 cells xenografted NOD/SCID mouse assessed as reduction in tumor weight at 10 mg/kg, ip administered once daily for 21 days; assay type: functional; details: time 21 day
[30] = molecular target: Serine/threonine-protein kinase pim-1 (Homo sapiens) (UniProt P11309); test: Inhibition of PIM-1 (unknown origin) at 0.2 uM incubated for 40 mins by radiometric kinase assay relative to control
[31] = molecular target: Serine/threonine-protein kinase B-raf (Homo sapiens) (UniProt P15056); test: Inhibition of B-Raf (unknown origin) at 0.2 uM incubated for 40 mins by radiometric kinase assay relative to control
[32] = Toxicity in NOD/SCID mouse xenografted with human JeKo-1 cells assessed as eating abnormalities at 25 to 50 mg/kg, ip measured for 16 days; assay type: organism-based; details: in vivo, 384 h, dose 25-50 mg/kg, time 16 day
[33] = molecular target: Signal transducer and activator of transcription 5A (Homo sapiens) (UniProt P42229); test: Inhibition of STAT5 phosphorylation in human JeKo-1 cells incubated for 72 hrs by Western blot analysis; assay type: cell-based; details: dose 30-750 nM
in vitro = details: human, Caco-2
Description: Apparent permeability across basolateral to apical side in human Caco-2 cells incubated for 120 mins by LC-MS/MS analysis

[34] = Acute toxicity in ICR mouse assessed as animal survival at 240 mg/kg, ip measured for 2 weeks; assay type: organism-based; details: in vivo
JeKo-1 [35] = test: Induction of apoptosis in human JeKo-1 cells assessed as necrotic cells at 150 nM incubated for 72 hrs by Annexin VFITC/PI staining based flow cytometry analysis (reference value: 0.67%); assay type: functional

T1 sequence (Q06187 whole entry): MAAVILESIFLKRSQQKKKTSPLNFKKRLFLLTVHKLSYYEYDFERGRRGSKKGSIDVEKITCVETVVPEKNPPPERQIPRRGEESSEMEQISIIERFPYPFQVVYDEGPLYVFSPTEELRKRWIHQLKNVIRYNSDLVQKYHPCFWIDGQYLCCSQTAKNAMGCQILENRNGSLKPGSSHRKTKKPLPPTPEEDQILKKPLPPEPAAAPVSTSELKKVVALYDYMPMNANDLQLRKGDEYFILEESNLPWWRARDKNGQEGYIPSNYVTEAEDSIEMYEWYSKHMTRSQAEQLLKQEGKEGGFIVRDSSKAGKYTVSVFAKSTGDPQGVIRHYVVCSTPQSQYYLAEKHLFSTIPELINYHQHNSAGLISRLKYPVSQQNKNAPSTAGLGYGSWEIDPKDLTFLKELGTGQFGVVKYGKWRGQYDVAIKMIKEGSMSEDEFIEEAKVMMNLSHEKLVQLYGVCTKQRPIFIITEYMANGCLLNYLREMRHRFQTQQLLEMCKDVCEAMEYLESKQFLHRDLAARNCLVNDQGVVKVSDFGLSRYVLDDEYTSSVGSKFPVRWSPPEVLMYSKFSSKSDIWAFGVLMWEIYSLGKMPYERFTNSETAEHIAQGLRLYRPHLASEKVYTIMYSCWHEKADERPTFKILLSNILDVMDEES
Serine/threonine-protein kinase B-raf (Homo sapiens), sequence (P15056 whole entry): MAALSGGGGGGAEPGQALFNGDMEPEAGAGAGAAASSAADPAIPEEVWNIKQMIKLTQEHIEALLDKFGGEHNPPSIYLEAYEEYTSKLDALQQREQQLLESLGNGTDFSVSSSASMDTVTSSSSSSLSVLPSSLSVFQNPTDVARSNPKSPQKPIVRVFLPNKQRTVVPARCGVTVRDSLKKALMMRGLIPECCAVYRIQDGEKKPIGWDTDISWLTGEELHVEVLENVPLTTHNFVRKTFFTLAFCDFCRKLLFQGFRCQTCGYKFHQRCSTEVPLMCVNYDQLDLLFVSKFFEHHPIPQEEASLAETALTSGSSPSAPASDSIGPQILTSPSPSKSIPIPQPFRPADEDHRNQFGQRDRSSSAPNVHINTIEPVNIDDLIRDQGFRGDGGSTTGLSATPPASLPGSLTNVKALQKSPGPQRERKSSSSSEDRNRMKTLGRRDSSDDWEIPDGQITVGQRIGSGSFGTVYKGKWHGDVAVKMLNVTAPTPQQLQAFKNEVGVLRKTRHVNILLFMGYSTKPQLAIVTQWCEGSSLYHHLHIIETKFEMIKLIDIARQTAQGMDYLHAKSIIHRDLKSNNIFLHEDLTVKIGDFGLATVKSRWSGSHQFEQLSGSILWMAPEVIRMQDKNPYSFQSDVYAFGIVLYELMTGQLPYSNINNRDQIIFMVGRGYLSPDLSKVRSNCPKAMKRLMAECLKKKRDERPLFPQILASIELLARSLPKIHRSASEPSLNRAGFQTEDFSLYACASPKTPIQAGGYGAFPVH
Receptor-type tyrosine-protein kinase FLT3, sequence (P36888 whole entry): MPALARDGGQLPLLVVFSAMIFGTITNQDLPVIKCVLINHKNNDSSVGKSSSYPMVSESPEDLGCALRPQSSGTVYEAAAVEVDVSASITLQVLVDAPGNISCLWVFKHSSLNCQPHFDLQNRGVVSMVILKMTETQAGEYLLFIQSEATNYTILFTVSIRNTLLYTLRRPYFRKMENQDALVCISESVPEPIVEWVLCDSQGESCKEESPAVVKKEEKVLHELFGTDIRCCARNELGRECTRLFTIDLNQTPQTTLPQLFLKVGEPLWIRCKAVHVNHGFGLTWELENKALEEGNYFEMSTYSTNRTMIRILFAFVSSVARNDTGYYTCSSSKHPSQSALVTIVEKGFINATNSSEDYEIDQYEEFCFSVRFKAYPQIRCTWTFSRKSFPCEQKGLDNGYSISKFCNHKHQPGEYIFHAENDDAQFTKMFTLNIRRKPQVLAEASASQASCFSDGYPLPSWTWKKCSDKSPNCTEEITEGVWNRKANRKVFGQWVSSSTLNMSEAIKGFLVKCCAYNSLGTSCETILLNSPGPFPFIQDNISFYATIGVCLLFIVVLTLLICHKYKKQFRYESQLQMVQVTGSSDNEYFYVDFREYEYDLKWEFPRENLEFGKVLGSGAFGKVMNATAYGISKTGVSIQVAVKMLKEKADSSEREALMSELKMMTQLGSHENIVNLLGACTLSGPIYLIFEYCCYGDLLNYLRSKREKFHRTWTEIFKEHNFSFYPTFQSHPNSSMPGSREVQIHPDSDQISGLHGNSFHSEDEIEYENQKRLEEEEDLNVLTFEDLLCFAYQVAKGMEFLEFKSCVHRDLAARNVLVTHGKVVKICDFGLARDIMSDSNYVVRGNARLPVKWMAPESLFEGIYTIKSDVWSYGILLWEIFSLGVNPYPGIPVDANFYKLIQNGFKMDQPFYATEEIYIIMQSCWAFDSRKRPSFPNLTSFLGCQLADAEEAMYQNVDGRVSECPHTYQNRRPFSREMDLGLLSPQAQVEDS
Serine/threonine-protein kinase pim-1 (Homo sapiens), sequence (P11309 whole entry, looked up): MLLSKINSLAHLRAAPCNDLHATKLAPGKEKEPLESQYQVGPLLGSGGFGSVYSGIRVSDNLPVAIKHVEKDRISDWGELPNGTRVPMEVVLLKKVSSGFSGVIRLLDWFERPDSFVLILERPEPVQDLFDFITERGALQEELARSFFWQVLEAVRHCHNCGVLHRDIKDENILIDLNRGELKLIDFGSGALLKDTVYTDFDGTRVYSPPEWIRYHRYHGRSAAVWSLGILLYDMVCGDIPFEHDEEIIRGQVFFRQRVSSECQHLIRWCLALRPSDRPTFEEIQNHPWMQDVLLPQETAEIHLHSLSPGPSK
Vascular endothelial growth factor receptor 1 (Homo sapiens), sequence (P17948 whole entry): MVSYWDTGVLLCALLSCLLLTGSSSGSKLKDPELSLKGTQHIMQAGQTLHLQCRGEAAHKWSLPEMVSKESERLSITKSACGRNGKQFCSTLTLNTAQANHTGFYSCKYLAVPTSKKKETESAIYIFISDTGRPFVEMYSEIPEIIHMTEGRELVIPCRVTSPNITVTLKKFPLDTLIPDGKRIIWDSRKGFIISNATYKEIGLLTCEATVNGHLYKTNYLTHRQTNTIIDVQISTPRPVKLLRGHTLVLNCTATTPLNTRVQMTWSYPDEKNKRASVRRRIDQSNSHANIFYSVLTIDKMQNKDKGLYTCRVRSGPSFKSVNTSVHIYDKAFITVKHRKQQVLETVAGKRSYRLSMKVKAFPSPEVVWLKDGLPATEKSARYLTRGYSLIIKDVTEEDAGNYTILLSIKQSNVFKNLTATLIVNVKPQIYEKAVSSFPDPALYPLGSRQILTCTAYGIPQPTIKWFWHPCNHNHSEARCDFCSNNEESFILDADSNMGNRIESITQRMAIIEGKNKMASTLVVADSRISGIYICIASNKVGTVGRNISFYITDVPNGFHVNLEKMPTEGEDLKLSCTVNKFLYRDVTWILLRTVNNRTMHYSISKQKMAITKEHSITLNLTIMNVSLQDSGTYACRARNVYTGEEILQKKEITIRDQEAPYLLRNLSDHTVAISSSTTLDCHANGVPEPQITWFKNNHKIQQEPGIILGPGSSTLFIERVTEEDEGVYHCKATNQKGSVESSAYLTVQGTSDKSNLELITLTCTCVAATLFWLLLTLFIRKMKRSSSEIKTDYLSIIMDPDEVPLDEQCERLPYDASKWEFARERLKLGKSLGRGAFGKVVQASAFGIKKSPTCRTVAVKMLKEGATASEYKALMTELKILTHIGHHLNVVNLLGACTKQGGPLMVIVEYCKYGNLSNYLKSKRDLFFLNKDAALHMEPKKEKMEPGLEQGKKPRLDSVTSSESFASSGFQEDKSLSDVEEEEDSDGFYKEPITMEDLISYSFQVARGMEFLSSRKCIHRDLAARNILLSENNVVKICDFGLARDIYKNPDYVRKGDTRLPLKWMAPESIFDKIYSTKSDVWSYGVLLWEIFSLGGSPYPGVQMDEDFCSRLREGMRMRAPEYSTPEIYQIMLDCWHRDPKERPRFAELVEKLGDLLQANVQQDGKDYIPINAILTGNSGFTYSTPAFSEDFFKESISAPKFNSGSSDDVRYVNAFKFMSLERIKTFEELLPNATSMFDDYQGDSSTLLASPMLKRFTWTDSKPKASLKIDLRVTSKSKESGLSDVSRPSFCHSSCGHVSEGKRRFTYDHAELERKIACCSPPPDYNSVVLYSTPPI
Mitogen-activated protein kinase kinase kinase 7 (Homo sapiens), sequence (O43318 whole entry): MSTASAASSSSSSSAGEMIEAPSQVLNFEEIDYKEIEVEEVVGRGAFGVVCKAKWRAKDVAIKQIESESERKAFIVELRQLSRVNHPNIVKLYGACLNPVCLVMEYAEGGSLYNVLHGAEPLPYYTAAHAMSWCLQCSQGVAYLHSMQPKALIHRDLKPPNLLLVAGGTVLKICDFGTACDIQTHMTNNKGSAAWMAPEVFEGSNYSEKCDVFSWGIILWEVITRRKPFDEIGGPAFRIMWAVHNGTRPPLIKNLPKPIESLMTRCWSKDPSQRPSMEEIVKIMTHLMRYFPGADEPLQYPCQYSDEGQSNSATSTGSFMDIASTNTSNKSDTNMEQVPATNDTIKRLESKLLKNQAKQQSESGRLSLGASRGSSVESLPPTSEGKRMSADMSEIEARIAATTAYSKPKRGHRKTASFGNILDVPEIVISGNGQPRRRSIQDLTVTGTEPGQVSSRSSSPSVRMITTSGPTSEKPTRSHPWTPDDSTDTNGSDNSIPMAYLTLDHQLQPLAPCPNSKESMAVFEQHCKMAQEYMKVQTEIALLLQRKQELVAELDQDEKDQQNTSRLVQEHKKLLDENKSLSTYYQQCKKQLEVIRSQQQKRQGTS

CN1CCN(c2ccc(Nc3ncc(F)c(Nc4ccccc4C(=O)NN)n3)cc2)CC1
inhibition in vivo at 10 mg/kg (MV4-11 [1]): 74.2% | IC50 [2]: 47 nM | Activity (JeKo-1 [3]): 12.08% | IC50 (MOLT-4 [4]): 11 nM | inhibition [5]: 100% | Activity (JeKo-1 [6]): 0.18 g | inhibition [7]: Dose-Dependent Effect | viability at 0.15 µM (JeKo-1 [8]): 72.4% | Ratio IC50 (JeKo-1 [9]): 6 | Ratio IC50 (MV4-11 [10]): 6 | IC50 [11]: 12 nM | Activity (JeKo-1 [12]): Dose-Dependent Effect | Activity [13]: Non-Toxic | inhibition [14]: 79% | Activity (JeKo-1 [15]): Dose-Dependent Effect | Ratio IC50 (MOLT-4 [16]): 1.3 | viability at 0.75 µM (JeKo-1 [17]): 61.5% | Activity (JeKo-1 [18]): 0.47% | survival at 336 h [19]: 40% | survival at 336 h [20]: 60% | inhibition [21]: -7% | Activity (JeKo-1 [22]): Dose-Dependent Effect | Activity (JeKo-1 [23]): 0.22% | viability at 0.03 µM (JeKo-1 [24]): 87.5% | inhibition [25]: 26% | Activity (MV4-11 [26]): Dose-Dependent Effect | Ratio IC50 (MOLT-4 [27]): 8 | inhibition [28]: 5% | Activity (MV4-11 [29]): 0.33 g | inhibition [30]: 28% | inhibition [31]: 17% | Activity [32]: Non-Toxic | inhibition [33]: Dose-Dependent Effect | Papp B→A at 2 h (in vitro): 13.5 ×10⁻⁶ cm/s | survival at 336 h [34]: 100% | Activity (JeKo-1 [35]): 0.37%
